Laboratory results: US20240229155A1, “M[…] FOR THE TREATMENT OF GLIOBLASTOMA AND OTHER CANCERS” (Duke University, priority 2021, published 2024)
Entries after “also recorded” stand apart in the source; their conditions may differ.

What was measured:
[1] = system: STING promoter CpG site cg16983159; test: cg16983159 site-specific methylation qPCR assay after decitabine treatment of GBM cell lines; type: cell-based, human; details: 250 nM decitabine for 5 days vs DMSO; GBM cell lines with high STING promoter methylation
Protocol: (§1) Decitabine Treatment: Decitabine was dissolved in DMSO to produce a stock concentration of 10 mM. This stock concentration was diluted directly before each treatment at a 1:100 ratio with 1×PBS to create the working solution with a concentration of […].
(§2) Cells were seeded at density of 30,000 cells/well in 6-well plates. Each cell line was seeded in 2 mL of the same media in which they were cultured (cells were cultured in media according to ATCC). The following day (Day 0), a volume of decitabine working solution was added directly to the wells to reach the desired concentration. In the DMSO control wells, DMSO was diluted 1:100 in PBS, with the same amount of DMSO:PBS solution added as that of the decitabine condition. […]
STING Methylation qPCR Methods: Bisulfite conversion of 25 ng to lug gDNA was done using the EpiTect Bisulfite Kit (Qiagen 59104) following manufactures protocol. […] Percent methylation was calculated as 1/(1+1/(2^-ΔCt))×100 with ΔCt=FAM −VIC. […]
cg16983159 site-specific methylation qPCR assay: A site-specific qPCR assay for measuring cg16983159 methylation was developed using the method described by Yu et al. (Yu et al., 2019). […] Percent methylation was calculated as 100%×1/1+2ΔCt where ΔCt=FAM−VIC. […]

[2] = system: cGAS; test: Western blot of cGAS after decitabine treatment of GBM cell lines; type: cell-based, human; details: 250 nM decitabine for 5 days vs DMSO
Protocol: (§3) Cells were seeded at density of 30,000 cells/well in 6-well plates. Each cell line was seeded in 2 mL of the same media in which they were cultured (cells were cultured in media according to ATCC). The following day (Day 0), a volume of decitabine working solution was added directly to the wells to reach the desired concentration. In the DMSO control wells, DMSO was diluted 1:100 in PBS, with the same amount of DMSO:PBS solution added as that of the decitabine condition. On days 1-5, the media was refreshed, such that the media being added to the wells contained the respective decitabine/DMSO concentration and were prepared immediately before their addition. The cells were harvested for protein on day 6.
(§4) Western Blots: Cells were washed 2× with ice cold 1×PBS and lysed on ice with RIPA lysis buffer, containing protease/phosphatase inhibitors, and benzonase. Lysates were spun down for 15 min 14,000×g at 4 degrees C. Protein was denatured, ran on 4-12% NuPage Bis-Tris gels in 1×MOPS buffer, and transferred to PVDF membrane. The membrane was blocked in 5% Blotting grade blocker (BioRad 170-6404) dissolved in 1×TBS 0.1% TWEEN. Primary antibody was added according to manufacturer's protocol and incubated overnight at 4° C. Membranes were then incubated with secondary HRP antibody and screened with Supersignal Pico ECL. […]

[3] = system: CpG sites in a ~400 nucleotide window centered on cg16983159; test: Semi-quantitative methylation sequencing assay of bisulfite-treated glioma cell lines; type: cell-based, human; details: LN229 and U138 cells, decitabine vs DMSO
Protocol: Semi-quantitative methylation sequencing assay: Bisulfite treated DNA was PCR amplified for 40 cycles at 62° C. annealing temperature. Amplification reaction—10 μM of each primer, 25 mM MgCl2, 2.5 mM dNTPs, lx buffer, 0.7U HotStarTaq (Qiagen). Amplicons were sent to Azenta for purification and sanger sequencing with difficult template. Sequence traces were aligned. Percent methylation at the CpGs in the amplicons were estimated by comparing the C peak to the T peak.
(§5) Cell treatment with decitabine: Decitabine (Millipore-Sigma) was dissolved in DMSO to stock concentration of 10 mM and diluted directly before each treatment in 1×PBS. Cells were seeded at 3×10^4 cells/well in 6-well plates (protein) or 1.7×10^5 cells in 10 cm dishes (RNA/DNA). Matched concentrations of DMSO was used as a control. Media was refreshed with treatment daily for 5 days. Cells were harvested for protein, RNA and DNA on day 6, or treated with 2′3′-cGAMP for an additional 4 and 24 h and harvested for protein.

[4] = system: STING; test: Western blot of STING after decitabine treatment of GBM cell lines; type: cell-based, human; details: 250 nM decitabine for 5 days vs DMSO
Protocol: as §3, §4

[5] = system: STING pathway; test: Western blot for STING pathway activation: decitabine pretreatment followed by 2′3′-cGAMP; type: cell-based, human; details: for STING pathway activation (pTBK1 and pIRF3 expression) in response to cGAMP: 250 nM decitabine for 5 days, then 2′3′-cGAMP, protein at 4 h and 24 h, cell lines previously unresponsive to cGAMP
Protocol: (§6) Western Blots: Cells were washed 2× with ice cold 1×PBS and lysed on ice with RIPA lysis buffer, containing protease/phosphatase inhibitors, and benzonase. Lysates were spun down for 15 min 14,000×g at 4 degrees C. Protein was denatured, ran on 4-12% NuPage Bis-Tris gels in 1×MOPS buffer, and transferred to PVDF membrane. The membrane was blocked in 5% Blotting grade blocker (BioRad 170-6404) dissolved in 1×TBS 0.1% TWEEN. Primary antibody was added according to manufacturer's protocol and incubated overnight at 4° C. Membranes were then incubated with secondary HRP antibody and screened with Supersignal Pico ECL. A ChemiDoc MP (BioRad) and an iBright 1500FL imager (ThermoFisher) were used to detect the ECL signal.
Protein Isolation and Western Blotting: Cells were washed 2× with ice cold 1×PBS and lysed on ice with RIPA lysis buffer, containing protease/phosphatase inhibitors, and benzonase. Lysates were spun down for 15 min at 14,000×g at 4° C. Protein was denatured at 95° C. for 5 min, ran on 4-12% NuPage Bis-Tris gels in 1×MOPS buffer, and transferred to PVDF membrane. The membrane was blocked in 5% Blotting grade blocker (BioRad) dissolved in 1×TBS 0.1% TWEEN20. Primary antibody was added according to manufacturer's protocol and incubated overnight at 4° C. Membranes were incubated with secondary HRP antibody (Cell Signaling) and screened with Supersignal Pico ECL (ThermoFisher). A ChemiDoc MP (BioRad) and an iBright 1500FL imager (ThermoFisher) were, used to detect the ECL signal. Primary antibodies were used to the following targets: pSTING (Ser366), STING, cGAS, pTBK1 (Ser172), TBK1, pIRF3 (Ser396), IRF3, pSTAT1 (Tyr701), STAT1, IFIT1, ISG15, DNMT1, β-actin (Cell Signaling), IRF3 (Biolegend).
as §5, with “Cells were harvested for protein, RNA and DNA on day 6, or treated with 2′3′-cGAMP for an additional 4 and 24 h and harvested for protein.” left out

[6] = system: STING (TMEM173) mRNA; test: STING mRNA expression (qPCR) after decitabine treatment of GBM cell lines; type: cell-based, human; details: 250 nM decitabine for 5 days vs DMSO, normalized to beta actin
Protocol: as §1
as §2, with “concentration.” for “concentration. In the DMSO control wells, DMSO was diluted 1:100 in PBS, with the same amount of DMSO:PBS solution added as that of the decitabine condition.”
Protocol for mRNA Expression: RNA expression was measured by converting 250 ng to lug of RNA to cDNA with the iScript cDNA conversion kit (BioRad Cat #1708891) in 20 μL total. […]
20× PrimePCR Primers targeting B-actin (BioRad #qHsa CED0036269), and TMEM173 (BioRad #qHsa CID00010565), were used. Fold change (2^(−Delta Delta Ct) was calculated using B-actin as the housekeeping gene.
Quantitative gene expression analysis: RNA/DNA were co-extracted from cells using Qiagen AllPrep DNA/RNA/miRNA Universal Kit mini kit (Qiagen) for decitabine experiments, and Quick-DNA/RNA™Miniprep Kit for baseline cell expression/methylation, following the manufacturer's protocols. RNA expression was measured by converting 250 ng to 1 μg RNA to 25 cDNA with the iScript cDNA conversion kit (BioRad). […]

[7] = molecular target: T1, DNMT1 (Homo sapiens, UniProt P26358); test: Western blot of DNMT1 after decitabine treatment of GBM cell lines; type: cell-based; details: 250 nM decitabine for 5 days vs DMSO; GBM cell lines with high STING promoter methylation
T1 construct: Western blot analysis showing DNMT1 and STING expression following decitabine or DMSO treatment; endogenous in cells; host or cells: GBM/glioma cell lines
Protocol: as §3, §4

[8] = system: GBM tissue slice cultures; test: Ex vivo GBM slice culture assay with 2′3′-cGAMP; type: cell-based, human; details: 5 μg/ml, 48 h, TAMC vs tumor cells
Protocol: GBM slice culture assay: Surgically resected, de-identified newly diagnosed GBM tissue was acquired under a Duke IRB approved protocol within hours of resection. Slice culture studies in this manuscript are extended/additional analyses of slice culture data sets reported in a prior study where the pattern of PRR signaling vs virotherapy was compared (Brown et al., 2021). A portion (˜25%) of fresh tissue was analyzed by flow cytometry to determine relative immune cell subset densities using the following flow cytometry panel after 1:20 Human Tru-Stain FcX treatment (BioLegend): CD45-BUV395 (BD Biosciences), CD14-BV421, CD33-BV510, CD49d-BV605, HLA-DR-BV786, CD31-FITC, CD3/19-BUV737, CD11b-APC, CD16-BV711, CD15-APC-fire7, and either CD155-PE or isotype control-PE antibody (all BioLegend); viability stain (7-AAD, BioLegend) was added after staining. Fresh remaining tissue was sliced into quarters, followed by slicing to −2 mm diameter fragments with a #10 scalpel (Hill-Rom). Slices were cultured in RPMI-1640 (Invitrogen) supplemented with 10% FBS (Sigma-Aldrich), 100 ng/ml EGF (R&D Biosystems); 5 μg/ml insulin (Gibco); 100 ng/ml hydrocortisone (Sigma-Aldrich). […] Supernatant cytokines were measured using the Human Antiviral Legendplex kit and Human Pro-inflammatory Chemokine kit (both BioLegend), per manufacturer's instructions. […]

[9] = system: GBM tissue slice cultures; details: ex vivo GBM tissue slice cultures (Brown et al., 2021); cited from earlier work
[10] = system: GBM cell suspensions; test: Cytokine secretion of CD14-separated GBM cell suspensions after 2′3′-cGAMP; type: cell-based, human; details: GBM cell suspensions separated by CD14; 48 h
[11] = system: cGAS/STING DNA sensing pathway; test: Response of GBM cell lines to cGAS (ISD) and STING (cGAMP) agonists, Western blot; type: cell-based, human
Protocol: as §6
Protein Isolation and Western Blotting: Cells were washed 2× with ice cold 1×PBS and lysed on ice with RIPA lysis buffer, containing protease/phosphatase inhibitors, and benzonase. Lysates were spun down for 15 min at 14,000×g at 4° C. Protein was denatured at 95° C. for 5 min, ran on 4-12% NuPage Bis-Tris gels in 1×MOPS buffer, and transferred to PVDF membrane. The membrane was blocked in 5% Blotting grade blocker (BioRad) dissolved in 1×TBS 0.1% TWEEN20. Primary antibody was added according to manufacturer's protocol and incubated overnight at 4° C. Membranes were incubated with secondary HRP antibody (Cell Signaling) and screened with Supersignal Pico ECL (ThermoFisher). […]

T1 sequence (P26358 whole entry): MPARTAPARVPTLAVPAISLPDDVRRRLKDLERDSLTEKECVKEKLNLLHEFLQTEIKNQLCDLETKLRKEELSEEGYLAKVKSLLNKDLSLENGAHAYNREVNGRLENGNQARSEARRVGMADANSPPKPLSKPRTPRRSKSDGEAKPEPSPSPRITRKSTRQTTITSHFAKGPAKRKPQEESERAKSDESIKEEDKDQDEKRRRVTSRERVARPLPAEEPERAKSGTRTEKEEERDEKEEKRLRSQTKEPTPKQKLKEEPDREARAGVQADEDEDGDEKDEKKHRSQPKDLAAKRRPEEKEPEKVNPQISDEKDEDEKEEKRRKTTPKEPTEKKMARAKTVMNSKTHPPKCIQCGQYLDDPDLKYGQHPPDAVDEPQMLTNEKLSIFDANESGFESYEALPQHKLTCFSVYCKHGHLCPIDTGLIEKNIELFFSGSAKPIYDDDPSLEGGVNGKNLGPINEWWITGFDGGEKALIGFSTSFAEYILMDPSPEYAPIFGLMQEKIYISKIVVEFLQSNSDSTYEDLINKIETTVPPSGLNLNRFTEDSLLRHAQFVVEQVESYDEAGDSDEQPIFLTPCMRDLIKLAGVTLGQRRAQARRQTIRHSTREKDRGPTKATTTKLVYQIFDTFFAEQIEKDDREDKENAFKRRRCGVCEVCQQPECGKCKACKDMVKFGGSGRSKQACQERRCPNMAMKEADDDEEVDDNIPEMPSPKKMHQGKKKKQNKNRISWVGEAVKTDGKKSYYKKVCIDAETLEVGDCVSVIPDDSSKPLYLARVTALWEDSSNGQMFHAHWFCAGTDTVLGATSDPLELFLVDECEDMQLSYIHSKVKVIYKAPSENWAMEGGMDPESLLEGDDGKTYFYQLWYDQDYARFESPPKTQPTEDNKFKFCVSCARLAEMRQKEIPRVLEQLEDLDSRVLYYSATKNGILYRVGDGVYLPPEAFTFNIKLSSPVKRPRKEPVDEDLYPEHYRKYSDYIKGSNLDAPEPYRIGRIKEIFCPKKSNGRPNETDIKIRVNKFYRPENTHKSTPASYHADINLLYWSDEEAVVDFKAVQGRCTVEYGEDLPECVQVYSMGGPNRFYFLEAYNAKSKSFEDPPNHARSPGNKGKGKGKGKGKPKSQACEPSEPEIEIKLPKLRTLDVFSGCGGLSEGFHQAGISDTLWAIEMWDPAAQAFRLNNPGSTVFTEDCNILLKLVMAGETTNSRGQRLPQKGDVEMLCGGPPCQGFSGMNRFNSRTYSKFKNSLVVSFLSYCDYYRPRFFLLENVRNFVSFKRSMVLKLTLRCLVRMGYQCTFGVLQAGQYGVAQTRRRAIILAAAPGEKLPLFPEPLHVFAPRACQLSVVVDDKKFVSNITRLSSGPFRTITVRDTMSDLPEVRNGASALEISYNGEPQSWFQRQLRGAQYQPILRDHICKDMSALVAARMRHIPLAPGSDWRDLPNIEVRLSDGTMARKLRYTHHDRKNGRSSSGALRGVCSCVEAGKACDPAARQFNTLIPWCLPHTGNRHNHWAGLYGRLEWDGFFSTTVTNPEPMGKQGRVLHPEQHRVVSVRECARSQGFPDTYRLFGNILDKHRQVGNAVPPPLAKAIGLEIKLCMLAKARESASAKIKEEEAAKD

| Structure (SMILES) | STING cg16983159 methylation [1] | cGAS expression (Western blot) [2] | methylation state of CpG sites around cg16983159 (bisulfite sequencing) [3] | STING protein expression [4] | STING pathway activation (pTBK1 and pIRF3 expression) in response to cGAMP [5] | STING pathway activation (pTBK1 and pIRF3 expression) in response to cGAMP ([5]; listed as decitabine) | markers of downstream IFN activation (pSTAT1, IFIT1, ISG15) ([5]; decitabine pretreatment for 5 days followed by cGAMP) | STING mRNA expression [6] | DNMT1 expression (Western blot) [7] | IFIT1 induction (flow cytometry) [8] | CXCL10 induction [9] | type I IFNs induction [9] | CXCL10 induction [10] | TNF induction [10] | downstream response (pTBK1, pIRF3) to STING agonist ([11]; A172 cell line, high baseline STING expression) | downstream response (pTBK1, pIRF3) to STING agonist ([11]; U138MG cell line, no STING expression) |
| --- | --- | --- | --- | --- | --- | --- | --- | --- | --- | --- | --- | --- | --- | --- | --- | --- |
| Nc1ncn([C@H]2C[C@H](O)[C@@H](CO)O2)c(=O)n1 [Decitabine, 5-azadeoxycytidine] | decreased | induces | cg16983159 and upstream CpG sites are demethylated, while downstream sites are not | increased | restores STING signaling | reactivation or enhancement of the pathway | induced | increased | significant suppression; also recorded: suppressed |  |  |  |  |  |  |  |
| Nc1nc2c(ncn2[C@@H]2O[C@@H]3COP(=O)(O)O[C@H]4[C@@H](O)[C@H](n5cnc6c(N)ncnc65)O[C@@H]4COP(=O)(O)O[C@@H]2[C@@H]3O)c(=O)[nH]1 [cGAMP, 2′3′-cGAMP] |  |  |  |  |  |  |  |  |  | induced selectively in TAMC | induced | induced | occurred only in CD14+ containing glioma cell suspensions | occurred only in CD14+ containing glioma cell suspensions | strong downstream response | failed to activate pTBK1 or pIRF3 |
